Earlier results on 1 molecule are cited in US20260053818A1, “PHARMACEUTICAL FORMULATION FOR THE TREATMENT OF INFLAMMATORY CHANGES TO THE RECTUM” (Dr. Falk Pharma GmbH, priority 2015, published 2026).

Values after ≈ are worked out from the molar mass of the structure shown.

The conditions of this data set: Merck Index.

In the case of `CCCC1O[C@@H]2C[C@H]3[C@@H]4CCC5=CC(=O)C=C[C@]5(C)[C@H]4[C@@H](O)C[C@]3(C)[C@]2(C(=O)CO)O1` (stereo partly shown) [budesonide], the solubility in water was 14 µg/mL (≈ 32.5 µM).
